What was measured:
immature B cells = assay: Apoptosis assay (relative DNA content, propidium iodide flow cytometry) in immature B cells; assay type: cell-based, mouse; details: late-stage immature B cells, 18 hours, anti-IgM F(ab′)2 50 μg/ml plus phorbol ester (PMA 10 ng/ml)
Method: Experiments were performed using an in vitro model system that makes use of an immature population of B cells purified from the spleens of adult mice after sublethal irradiation. Immature B cells obtained from these autoreconstituting mice are phenotypically immature and respond identically to immature B cells purified from either […] bone marrow (Norvell, A. et al. 1995. J. Immunol. 154:4404; Norvell, A. and J. G. Monroe. 1996. J. Immunol. 156:1328). This homogeneous population of immature B cells is devoid of pre-B cells and mature B cells found in neonatal spleen and adult bone marrow, respectively. Further, unlike the immature B cells purified from either bone marrow or neonatal spleen, immature B cells from autoreconstituting mice can be isolated without positive selection on anti-Ig panning plates. Since large numbers of unmanipulated immature B cells can be obtained, autoreconstituting B cells are an ideal system for analyzing biochemical events responsible for tolerogenic signal transduction. The B cells isolated from these mice represent a transitional stage of development in which cells are subject to negative selection. This in vitro system uses apoptosis as an indicator of negative selection.
Purified populations of either immature B cells obtained from the spleens of day 14 autoreconstituting mice or mature B cells isolated from spleens of normal adult mice were incubated in the absence or presence of 50 μg/ml of rabbit anti-mouse IgM F(ab′)2 fragments (anti-Ig) for 16-18 hours. […]
The ability of PMA to protect immature B cells from BCR-induced apoptosis was assessed in the presence of the same two inhibitors. […]
(§1) Purified B cells were cultured under various conditions overnight in either sterile 2 ml click-cap tubes or 96-well plates. […] The cells were stained at 4° C. overnight and analyzed by flow cytometry on a Becton Dickinson FACScan using LYSYS II software. The mean percentages of apoptotic cells and the standard errors for each culture condition were determined and significance was assessed by the Student's t-test.

[1] = system: PKC-depleted mature B cells; assay: Modified TUNEL analysis of PKC-depleted mature B cells; assay type: cell-based, mouse
Method: To assess the role of PKC activation in the prevention of antigen-mediated apoptosis, the ability of anti-Ig to induce apoptosis in PKC-depleted mature B cells was determined. […] After overnight treatment, the cells were washed expansively and subjected to an apoptotis analysis in which B cells were recultured with medium alone, anti-Ig, anti-Ig and PMA or anti-Ig and 4αPDD. After 8 hours incubation, the cells were harvested and subjected to a modified TUNEL analysis. […]. After PKC depletion, mature B cells were specifically susceptible to anti-Ig-mediated apoptosis.
In some cases, the frequency of apoptotic cells was quantitated using a modified TUNEL assay. Briefly, 1×10^6 cells were fixed in 2.5% formaldehyde in 1xPBS. The fixed cells were permeabilized in 0.2 ml 0.1% Triton/0.1% citrate for 2 minutes on ice. After washing, cells were incubated in 50 μl of nick translation reagent, which consists of 5 μl nick translation buffer (500 mM Tris, pH 7.5; 100 mM MgSO4; 1 mM DTT), 0.03 μl of fluorescein-dUTP (1 nmol/μl), 1 µl dTTP (0.7 nmol/μl), 1 μl each of dATP, dCTP, dGTP (1 nmol/μl) and 0.1 μl DNA polymerase (5 U/μl) and incubated for at least 1 hour at 37° C. Cells were then washed and analyzed by flow cytometry.

PKCβ = biological target: T1, PKCβ (Mus musculus, UniProt P68404); assay: PKC depletion monitored by Western blot analysis; assay type: cell-based; details: PDBu-treated B cells
T1 construct: endogenous in cells; host or cells: primary mature splenic B cells of mice
T1 sequence (P68404 whole entry): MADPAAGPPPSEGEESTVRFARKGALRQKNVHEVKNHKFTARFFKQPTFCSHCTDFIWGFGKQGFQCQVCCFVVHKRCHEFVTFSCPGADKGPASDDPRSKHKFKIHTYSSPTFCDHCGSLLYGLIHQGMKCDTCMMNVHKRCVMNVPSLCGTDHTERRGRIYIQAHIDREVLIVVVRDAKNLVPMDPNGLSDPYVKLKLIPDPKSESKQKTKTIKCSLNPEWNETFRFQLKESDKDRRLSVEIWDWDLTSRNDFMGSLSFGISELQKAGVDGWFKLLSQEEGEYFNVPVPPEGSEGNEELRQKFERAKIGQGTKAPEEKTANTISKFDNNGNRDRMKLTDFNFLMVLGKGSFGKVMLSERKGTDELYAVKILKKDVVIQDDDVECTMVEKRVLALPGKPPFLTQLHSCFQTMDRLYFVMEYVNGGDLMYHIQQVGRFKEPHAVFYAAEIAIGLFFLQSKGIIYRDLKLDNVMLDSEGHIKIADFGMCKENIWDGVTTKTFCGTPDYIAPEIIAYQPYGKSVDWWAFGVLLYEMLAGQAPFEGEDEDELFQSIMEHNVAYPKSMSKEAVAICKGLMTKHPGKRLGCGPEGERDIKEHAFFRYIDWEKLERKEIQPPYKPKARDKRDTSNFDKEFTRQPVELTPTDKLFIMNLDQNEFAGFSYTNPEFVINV
Method: (§2) Therefore, experiments were performed to determine if PKC-depleted mature B cells were susceptible to BCR-induced apoptosis. […] PKC depletion in PDBu- or mock-treated cultures was monitored by Western blot analysis. […] PKC levels in unstimulated immature and mature cells were quite similar, making it unlikely that differential regulation of PKC activity would occur at the level of expression of the individual isoenzyes.
(§3) For analysis of postnuclear extracts, 1×10^7 cells were lysed in 50 μl of Triton-X lysis buffer (0.1% Triton-X-100; 100 mM Tris, pH 8.0; 10.8 μg/ml aprotinin; 1.5 μg/ml each of leupeptin, pepstatin A, chymostatin, and antipain; 2 mM phenylmethylsulfonyl fluoride; 1 mM N-ethylmaleimide) on ice for 30 minutes. Lysates were microcentrifuged at 14,000× g at 4° C. for 10 minutes to remove the Triton-X insoluble fraction. Lysates from equivalent cell numbers were fractionated on SDS-PAGE gels and electroblotted onto Immobilon (Millipore, Bedford, Mass.). Blots were incubated overnight in Tris-buffered saline with Tween-TBST (10 mM Tris, pH 8.0; 137 mM NaCl; 0.05% Tween 20) plus 2% bovine serum albumin to block nonspecific binding. Membranes were washed twice with TBST and probed with the appropriate antibody solutions for 90 minutes, then washed 3 times in TBST, followed by secondary incubation with the appropriate horseradish peroxidase-conjugated reagents. Three washes with TBST were conducted before detection with an enhanced chemiluminescence system.

PKCδ = biological target: T2, PKCδ (Mus musculus, UniProt P28867); assay: PKC depletion monitored by Western blot analysis; assay type: cell-based; details: PDBu-treated B cells
T2 construct: endogenous in cells; host or cells: primary mature splenic B cells of mice
T2 sequence (P28867 whole entry): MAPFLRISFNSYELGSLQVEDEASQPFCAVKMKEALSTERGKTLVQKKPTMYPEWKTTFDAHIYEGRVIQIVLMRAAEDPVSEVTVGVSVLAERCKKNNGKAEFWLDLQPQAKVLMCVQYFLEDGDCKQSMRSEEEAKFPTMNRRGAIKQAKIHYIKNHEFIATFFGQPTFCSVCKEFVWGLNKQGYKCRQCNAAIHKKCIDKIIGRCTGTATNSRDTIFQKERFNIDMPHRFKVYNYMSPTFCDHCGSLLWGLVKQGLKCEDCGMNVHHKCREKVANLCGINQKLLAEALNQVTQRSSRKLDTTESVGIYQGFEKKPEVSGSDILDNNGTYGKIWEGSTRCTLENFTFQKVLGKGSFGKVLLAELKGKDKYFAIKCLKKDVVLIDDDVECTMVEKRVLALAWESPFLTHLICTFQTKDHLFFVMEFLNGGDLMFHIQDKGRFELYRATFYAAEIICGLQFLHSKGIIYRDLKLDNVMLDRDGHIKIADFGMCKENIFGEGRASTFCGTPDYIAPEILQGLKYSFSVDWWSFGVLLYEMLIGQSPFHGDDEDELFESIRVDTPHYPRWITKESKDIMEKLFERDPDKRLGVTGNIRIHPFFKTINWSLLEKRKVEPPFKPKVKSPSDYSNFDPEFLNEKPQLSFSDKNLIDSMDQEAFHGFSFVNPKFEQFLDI
Method: as §2, §3

PKCε = biological target: T3, PKCε (Mus musculus, UniProt P16054); assay: PKC depletion monitored by Western blot analysis; assay type: cell-based; details: PDBu-treated B cells
T3 construct: endogenous in cells; host or cells: primary mature splenic B cells of mice
T3 sequence (P16054 1-737): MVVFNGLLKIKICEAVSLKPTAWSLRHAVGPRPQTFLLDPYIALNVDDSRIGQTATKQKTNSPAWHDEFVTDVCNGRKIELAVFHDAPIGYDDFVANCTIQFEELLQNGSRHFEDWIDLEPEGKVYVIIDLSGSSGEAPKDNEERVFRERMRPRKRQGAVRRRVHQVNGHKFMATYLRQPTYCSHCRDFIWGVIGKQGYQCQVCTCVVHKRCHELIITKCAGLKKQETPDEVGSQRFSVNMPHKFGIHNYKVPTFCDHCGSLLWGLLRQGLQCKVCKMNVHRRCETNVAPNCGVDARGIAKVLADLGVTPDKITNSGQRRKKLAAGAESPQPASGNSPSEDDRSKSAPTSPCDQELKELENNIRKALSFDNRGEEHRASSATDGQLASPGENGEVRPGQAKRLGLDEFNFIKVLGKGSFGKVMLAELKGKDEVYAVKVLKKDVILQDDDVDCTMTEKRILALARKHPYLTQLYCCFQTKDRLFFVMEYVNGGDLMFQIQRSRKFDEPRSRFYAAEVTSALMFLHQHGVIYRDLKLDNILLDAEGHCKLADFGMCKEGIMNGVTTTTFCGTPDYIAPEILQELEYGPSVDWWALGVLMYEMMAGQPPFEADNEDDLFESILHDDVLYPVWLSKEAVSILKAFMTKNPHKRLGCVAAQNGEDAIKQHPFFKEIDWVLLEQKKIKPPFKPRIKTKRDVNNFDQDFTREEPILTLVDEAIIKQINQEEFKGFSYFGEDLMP
Method: as §2, §3

[2] = system: BCR-induced increase in intracellular calcium; assay: Measurement of intracellular calcium in Fura-2-AM loaded B cells; assay type: cell-based, mouse
Method: Since PMA was capable of rescuing mature, PKC-depleted B cells from anti-Ig-induced apoptosis, experiments were performed to assess whether PMA was capable of desensitizing the BCR in these cells.
Purified B cells were washed in HBSS without phenol red and supplemented with 2% FCS. For loading, cells were resuspended in HBSS without phenol red and supplemented with 10% FCS. Fura-2 acetoxymethyl ester was added to a final concentration of 1 μM from a 1 mM stock made in DMSO. Cells were incubated in light tight tubes for 30 minutes at 30° C. with occasional inversion. Cells were then washed twice with HEBSS+2% FCS and resuspended at a concentration of 3.3×10^7/ml in HBSS+10% FCS. Fluorometric analysis of dyed cells was performed using a luminescence spectrometer. Excitation was at 340 nm and 380 nM with emission monitored at 510 nm. B cells were diluted to 2×10^6/ml in HBSS and equilibrated for 2 minutes, at which time a baseline spectrum was read. The cells were stimulated with rabbit anti-mouse IgM F(ab′)2 fragments (50 μg/ml) and the response measured. Cells were then lysed with Triton X-100 and Fmax and Fmin were measured by the chelation of extracellular calcium with the addition of EGTA. Calcium traces were calculated by the Intracellular Biochemistry Application (Perkin-Elmer) using these values.

mature B cells = assay: Apoptosis assay (propidium iodide flow cytometry) in mature B cells; assay type: cell-based, mouse; details: inhibitor added 15 minutes before stimulation with anti-Ig
Method: Purified populations of either immature B cells obtained from the spleens of day 14 autoreconstituting mice or mature B cells isolated from spleens of normal adult mice were incubated in the absence or presence of 50 μg/ml of rabbit anti-mouse IgM F(ab′)2 fragments (anti-Ig) for 16-18 hours. […] Similar results were observed using a modified TUNEL technique that detects nicked DNA.
The role of PKC in preventing BCR-induced apoptosis of immature B cells was also examined using inhibitors of PKC.
as §1, with “plates. PKC inhibitors were added 15 minutes before the addition of the stimulant. After 14-18 hours in the case of immature B cells or 24 hours in the case of mature B cells, the cells were harvested and washed in PBS containing 2% FCS. Cells were fixed and permeabilized by resuspending in 70% ethanol made in 1xPBS and incubating at −20° C. for at least 2 hours.” for “plates.”

CCCCCCCCCC(=O)O[C@@H]1[C@@H](C)[C@@]2(O)[C@@H](C=C(CO)C[C@@]3(O)C(=O)C(C)=C[C@@H]23)[C@@H]2C(C)(C)[C@]12OC(=O)CCCCCCCCC [4αPDD]
protection (rescue) from anti-IgM-induced apoptosis (immature B cells): efficiently rescued cells

CCCCCCCCCC(=O)O[C@@H]1[C@@H](C)[C@@]2(O)[C@@H](C=C(CO)C[C@]3(O)C(=O)C(C)=C[C@@H]23)[C@@H]2C(C)(C)[C@]12OC(=O)CCCCCCCCC [4βPDD]
protection (rescue) from anti-IgM-induced apoptosis (immature B cells): did not rescue cells

CCCC(=O)O[C@@H]1[C@@H](C)[C@@]2(O)[C@@H](C=C(CO)C[C@]3(O)C(=O)C(C)=C[C@@H]23)[C@@H]2C(C)(C)[C@]12OC(=O)CCC [PDBu]
number of apoptotic cells after anti-Ig ([1]; mature B cells cultured overnight with 100 ng/ml PDBu, washed, recultured 8 hours with anti-Ig): significant and striking increase in the number of apoptotic cells | depletion of PKCβ (PKCβ): efficiently depleted | depletion of PKCδ (PKCδ): also depleted, although not as efficiently | depletion of PKCε (PKCε): also depleted, although not as efficiently

CCCCCCCCCCCCCC(=O)O[C@@H]1[C@@H](C)[C@@]2(O)[C@@H](C=C(CO)C[C@]3(O)C(=O)C(C)=C[C@@H]23)[C@@H]2C(C)(C)[C@]12OC(C)=O [PMA]
protection (rescue) from anti-IgM-induced apoptosis (immature B cells): significant protection from anti-IgM-induced apoptosis | rescue from anti-Ig-induced apoptosis ([1]; PDBu-treated (PKC-depleted) mature B cells, anti-Ig and PMA, 8 hours): still capable of rescuing the cells from anti-Ig-induced apoptosis | effect on BCR-induced calcium flux ([2]; PDBu-treated cells): did not alter the BCR-induced calcium flux | effect on BCR-induced increase in intracellular calcium ([2]; mock-treated B cells): efficiently reduced the BCR-induced increase in intracellular calcium

CN(C)C[C@H]1CCn2c(c(C3=C(c4cn(C)c5ccccc45)C(=O)NC3=O)c3ccccc32)C1 [Ro-32-0432]
induction of apoptosis (mature B cells): led to induction of apoptosis

CN(C)CCCn1cc(C2=C(c3c[nH]c4ccccc34)C(=O)NC2=O)c2ccccc21 [bisindoylmaleimide I]
induction of apoptosis (mature B cells): led to induction of apoptosis

— patent US20020019332A1, “METHOD OF INDUCING APOPTOSIS IN B-LYMPHOCYTES” (priority 1999, published 2002)
